Target: Prokineticin receptor 1 (Human, UniProt Q8TCW9)
Test: Aequorin-Based Luminescent Assay
Experimental: An aequorin-based luminescent assay for calcium mobilization was used to measure mobilization of intracellular Ca2+ (Bullock et al., Mol Pharmacol 65, 582-588, 2004). Chinese hamster ovary (CHO) cells stably expressing photoprotein aequorin and recombinant PKR1 or PKR2 were tested by this method. Briefly, the cells were charged in Opti-MEM (Invitrogen) containing 8 μM of coelenterazine cp at 37° C. for 2 hours. Cells were detached by brief trypsinization and maintained in Hank's Balanced Salt Solution (HBSS) plus 10 mM HEPES (pH7.5) and 0.1% BSA at about 5×10^5 cells/ml. Luminescence measurements were made using a Berthold luminometer.All compounds were diluted in HBSS plus 10 mM HEPES (pH7.5) and 0.1% BSA. To test the agonist activity, 100 μl of cells were injected into the tubes with 20 μl of compounds. For antagonist assays, 80 μl cells were incubated in the tubes with 20 μl different concentrations of antagonists at room temperature for 20 minutes, and then 100 μl of recombinant PK2 were injected. The IC50 obtained from the assays were then converted to Ki values using the formula: IC50/(1+[PK2]/EC50PK2).

Prokineticin receptor 1, sequence (Q8TCW9 whole entry): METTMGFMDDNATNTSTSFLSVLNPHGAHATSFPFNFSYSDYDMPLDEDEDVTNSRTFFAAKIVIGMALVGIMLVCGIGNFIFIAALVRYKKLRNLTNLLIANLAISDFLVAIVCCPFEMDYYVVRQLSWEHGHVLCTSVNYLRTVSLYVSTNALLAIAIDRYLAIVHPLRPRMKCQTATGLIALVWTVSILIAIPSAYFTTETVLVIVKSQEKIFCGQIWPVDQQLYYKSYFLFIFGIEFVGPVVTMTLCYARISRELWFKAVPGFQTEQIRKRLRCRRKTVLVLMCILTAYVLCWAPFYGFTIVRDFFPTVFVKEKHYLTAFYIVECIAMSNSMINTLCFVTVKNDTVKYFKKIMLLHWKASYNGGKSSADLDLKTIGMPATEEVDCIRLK

Ki [nM]	Compound
41.5	COc1cc(F)cc(CN2CCC(C(=O)N(Cc3cc(Cl)c4c(c3)OCCCO4)CC(C)C)C2)c1 (configuration not stated) [US10780095, Structure TABLE 1.18]
373	COc1cc(F)cc(CN2CCC(C(=O)N(Cc3cc(Cl)c4c(c3)OCCCO4)CC(C)C)C2)c1 (configuration not stated) [US10780095, Structure TABLE 1.16]
